Data published in patent US20060035209A1, “Screening method” (priority 2002, published 2006).

What was measured:
Format in all cases: in vivo, rat
TGF-β1 mRNA = TGF-β1 mRNA expression level in kidneys of Zucker fatty rats (real-time quantitative RT-PCR)
Excerpt: (§1) Male Zucker fatty rats (ZF rats, 18 weeks of age, Charles River Japan Inc.), which have hyperinsulinemia and spontaneously develop renal disease, were given oral administration of candesartan cilexetil (angiotensin II type 1 receptor antagonist) in suspension in 0.5% methylcellulose 100 cP once daily for 9 consecutive weeks. For a control group and a normal control group, male Zucker lean rats at the same weeks of age (ZL rats, Charles River Japan Inc.) were given oral administration of 0.5% methylcellulose 100 cP (vehicle) once daily for consecutive days. At 8 weeks of administration, 24-hour urine pooling was conducted, and urinary albumin excretion was measured using the A/G B Test Wako (Wako Pure Chemical Industries, Ltd.). At 9 weeks of administration, kidneys were collected and stored at −80° C. After the sample was disrupted, total RNA was extracted. A primer and a fluorescent probe were prepared on the basis of reported (ibidem) mRNA sequences, and various mRNA expression levels were measured by the real-time quantitative RT-PCR method using ABI PRISM7700 (Applied Biosystems).

TSC-22 mRNA = TSC-22 mRNA expression level in kidneys of Zucker fatty rats (real-time quantitative RT-PCR)
Excerpt: as §1

Zucker fatty rats = assay: Urinary albumin excretion in Zucker fatty rats (24-hour urine pooling, A/G B Test Wako)
Excerpt: as §1

[1] = Zucker fatty rats, administration of the drug

SMILES: CCOc1nc2cccc(C(=O)OC(C)OC(=O)OC3CCCCC3)c2n1Cc1ccc(-c2ccccc2-c2nnn[nH]2)cc1 (stereo not drawn) [Candesartan cilexetil, candesartan cilexetil]
- increase in TGF-β1 mRNA expression level in the kidneys (in words) (TGF-β1 mRNA; [1]): suppressed
- mRNA expression level of TGF-β1 in the kidneys (relative value with the expression level in the kidneys of Zucker lean rats as 1) (TGF-β1 mRNA; male ZF rats, oral once daily, kidneys collected at 9 weeks of administration, n = 8-9, Mean (ZF vehicle 2.1)): 1.2
- increase in TSC-22 mRNA expression level in the kidneys (in words) (TSC-22 mRNA; [1]): suppressed
- mRNA expression level of TSC-22 in the kidneys (relative value with the expression level in the kidneys of Zucker lean rats as 1) (TSC-22 mRNA; male ZF rats, oral once daily, kidneys collected at 9 weeks of administration, n = 8-9, Mean (ZF vehicle 2.4)): 1.6
- increase in urinary albumin excretion (in words) (Zucker fatty rats; [1]): suppressed
- Urinary albumin excretion (Zucker fatty rats; male ZF rats, oral once daily, at 8 weeks of administration, n = 8-9, Mean (ZF vehicle 401.5, ZL vehicle 48.5)): 61.7 mg/day
